Data set [1] has as its system mice. To be noted: single administration; cited from earlier work.
Data set [2] in a line: Water and lipid solubility of modafinil (observation in background).
The test system of data set [3] is monkeys. To be noted: single administration; cited from earlier work.

Here are results for one molecule from patent US7749540B2, “Compositions comprising modafinil compounds” (Cephalon, Inc., priority 2000, dated 2010).

For the molecule `NC(=O)C[S+]([O-])C(c1ccccc1)c1ccccc1` (stereo not drawn) [modafinil, 2-(benzhydryl-sulfinyl)acetamide], the locomotor activity result in data set [1] is recorded as “increased locomotor activity”. Moreover, the “water and lipid solubility” value in data set [2] is “very poor”. Further, in data set [3], the nocturnal activity entry was “increased nocturnal activity”.
